The source of these data is US8497278B2, “Imidazo[1,2-a]pyridine compounds” (priority 2008, dated 2013).

This assay deals with central benzodiazepine receptors. As to the kind of experiment: Central benzodiazepine receptor binding (test of Speth et al.). Conditions: 1000 nM of the compound. The essentials:
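Values are percent inhibition of central benzodiazepine receptor binding at 1000 nM compound (initial single-point screen at 1.0E-09, 1.0E-07 and 1.0E-05 M). Speth et al. binding test; nonspecific binding defined with excess unlabelled ligand and subtracted from total.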
For the molecule `Cc1ccc(-c2nc3ccc(C)cn3c2CNc2nccc(C)n2)cc1` [Compound 143, 4-methyl-N-((6-methyl-2-p-tolylH-imidazo[1,2-a]pyridin-3-yl)methyl)pyrimidin-2-amine], the “% Inhibition at 1000 nM for CBZD” value was “++ (percentage of inhibition of central BZD site binding is greater than 80% in the presence of 1000 nM of the compound)”.

Take `Cc1ccc(-c2nc3ccc(C)cn3c2CNc2cnccn2)cc1` [Compound 144, N-((6-methyl-2-p-tolylH-imidazo[1,2-a]pyridin-3-yl)methyl)pyrazin-2-amine]: the “% Inhibition at 1000 nM for CBZD” value is given as “++ (percentage of inhibition of central BZD site binding is greater than 80% in the presence of 1000 nM of the compound)”.

As for `Cc1ccc(-c2nc3ccc(C)cn3c2CNc2ncncn2)cc1` [Compound 146, (6-Methyl-2-p-tolyl-imidazo[1,2-a]pyridin-3-ylmethyl)-[1,3,5]triazin-2-yl-amine], the “% Inhibition at 1000 nM for CBZD” value is given as “++ (percentage of inhibition of central BZD site binding is greater than 80% in the presence of 1000 nM of the compound)”.

With `Cc1ccc(-c2nc3ccc(C)cn3c2CNc2nc(C)cc(C)n2)cc1` [Compound 148, 4,6-dimethyl-N-((6-methyl-2-p-tolylH-imidazo[1,2-a]pyridin-3-yl)methyl)pyrimidin-2-amine], the “% Inhibition at 1000 nM for CBZD” value was “++ (percentage of inhibition of central BZD site binding is greater than 80% in the presence of 1000 nM of the compound)”.

For `Cc1ccc(-c2nc3ccc(C)cn3c2CNc2ccon2)cc1` [Compound 149, N-((6-methyl-2-p-tolylH-imidazo[1,2-a]pyridin-3-yl)methyl)isoxazole-3-amine], the “% Inhibition at 1000 nM for CBZD” value is on record as “++ (percentage of inhibition of central BZD site binding is greater than 80% in the presence of 1000 nM of the compound)”.

For `Cc1ccc(-c2nc3ccc(C)cn3c2CNc2cc(C)ns2)cc1` [Compound 151, 3-methyl-N-((6-methyl-2-p-tolylH-imidazo[1,2-a]pyridin-3-yl)methyl)isothiazol-5-amine], the “% Inhibition at 1000 nM for CBZD” value is reported as “++ (percentage of inhibition of central BZD site binding is greater than 80% in the presence of 1000 nM of the compound)”.

On to `Cc1ccc(-c2nc3ccc(C)cn3c2CNn2cnnc2)cc1` [Compound 152, (6-methyl-2-p-tolylH-imidazo[1,2-a]pyridin-3-yl)-N-(4H-1,2,4-triazol-4-yl)methanamine], for which the “% Inhibition at 1000 nM for CBZD” value was “+ (percentage of inhibition of central BZD site binding is greater than 50% but less than 80% in the presence of 1000 nM of the compound)”.

As to `Cc1ccc(-c2nc3ccc(C)cn3c2CNc2ncc[nH]2)cc1` [Compound 153, N-((6-methyl-2-p-tolyl-H-imidazo[1,2-a]pyridin-3-yl)methyl)-1H-imidazol-2-amine], the “% Inhibition at 1000 nM for CBZD” value was “++ (percentage of inhibition of central BZD site binding is greater than 80% in the presence of 1000 nM of the compound)”.

Consider `Cc1ccc(-c2nc3ccc(C)cn3c2CNc2nc3ccccc3n2C)cc1` [Compound 154, 1-methyl-N-((6-methyl-2-p-tolylH-imidazo[1,2-a]pyridin-3-yl)methyl)-1H-benzo[d]imidazol-2-amine], for which the “% Inhibition at 1000 nM for CBZD” value is on record as “++ (percentage of inhibition of central BZD site binding is greater than 80% in the presence of 1000 nM of the compound)”.

With `Cc1ccc(-c2nc3ccc(C)cn3c2CNn2c(C)nc3ccccc3c2=O)cc1` [Compound 155, 2-Methyl-3-[(6-methyl-2-p-tolyl-imidazo[1,2-a]pyridin-3-ylmethyl)-amino]-3H-quinazolin-4-one], the “% Inhibition at 1000 nM for CBZD” value is “+ (percentage of inhibition of central BZD site binding is greater than 50% but less than 80% in the presence of 1000 nM of the compound)”.

Take `Cl.Clc1ccc(-c2nc3ccc(Cl)cn3c2CNc2ncccn2)cc1` [Compound 156, N-((6-chloro-2-(4-chlorophenyl)H-imidazo[1,2-a]pyridin-3-yl)methyl)pyrimidin-2-amine hydrochloride]: the “% Inhibition at 1000 nM for CBZD” value is given as “++ (percentage of inhibition of central BZD site binding is greater than 80% in the presence of 1000 nM of the compound)”.

`Cc1cc(Cl)nc(NCc2c(-c3ccc(C#N)cc3)nc3ccc(Cl)cn23)n1` [Compound 161, 4-(6-chloro-3-((4-chloro-6-methylpyrimidin-2-ylamino)methyl)imidazo[1,2-a]pyridin-2-yl)benzonitrile]: the “% Inhibition at 1000 nM for CBZD” value is reported as “++ (percentage of inhibition of central BZD site binding is greater than 80% in the presence of 1000 nM of the compound)”.

For the molecule `Cc1ccc(-c2nc3ccc(C)cn3c2CSc2ccccc2)cc1` [Compound 163, 6-Methyl-3-phenylsulfanylmethyl-2-p-tolyl-imidazo[1,2-a]pyridine], the “% Inhibition at 1000 nM for CBZD” value is “++ (percentage of inhibition of central BZD site binding is greater than 80% in the presence of 1000 nM of the compound)”.

`Fc1cc(F)nc(NCc2c(-c3ccccc3)nc3ccccn23)n1` [Compound 164, 4,6-difluoro-N-((2-phenylimidazo[1,2-a]pyridin-3-yl)methyl)pyrimidin-2-amine]: the “% Inhibition at 1000 nM for CBZD” value is “++ (percentage of inhibition of central BZD site binding is greater than 80% in the presence of 1000 nM of the compound)”.

For the molecule `Cc1ccc2nc(-c3ccc(F)cc3)c(CNc3nc(F)cc(F)n3)n2c1` [Compound 166, 4,6-difluoro-N-((2-(4-fluorophenyl)-6-methylimidazo[1,2-a]pyridin-3-yl)methyl)pyrimidin-2-amine], the “% Inhibition at 1000 nM for CBZD” value is on record as “++ (percentage of inhibition of central BZD site binding is greater than 80% in the presence of 1000 nM of the compound)”.

Take `Fc1cc(F)nc(NCc2c(-c3ccc(Cl)cc3)nc3ccccn23)n1` [Compound 167, N-((2-(4-chlorophenyl)imidazo[1,2-a]pyridin-3-yl)methyl)-4,6-difluoropyrimidin-2-amine]: the “% Inhibition at 1000 nM for CBZD” value was “++ (percentage of inhibition of central BZD site binding is greater than 80% in the presence of 1000 nM of the compound)”.

On to `Fc1cc(F)nc(NCc2c(-c3ccccc3)nc3ccc(Cl)cn23)n1` [Compound 168, N-((6-chloro-2-phenylimidazo[1,2-a]pyridin-3-yl)methyl)-4,6-difluoropyrimidin-2-amine], for which the “% Inhibition at 1000 nM for CBZD” value is “++ (percentage of inhibition of central BZD site binding is greater than 80% in the presence of 1000 nM of the compound)”.

`Fc1ccc(-c2nc3ccc(Cl)cn3c2CNc2nc(F)cc(F)n2)cc1` [Compound 169, N-((6-Chloro-2-(4-fluorophenyl)imidazo[1,2-a]pyridin-3-yl)methyl)-4,6-difluoropyrimidin-2-amine]: the “% Inhibition at 1000 nM for CBZD” value is “++ (percentage of inhibition of central BZD site binding is greater than 80% in the presence of 1000 nM of the compound)”.

For the molecule `Cc1ccc(-c2nc3c(Cl)cc(Cl)cn3c2CNc2ncc[nH]2)cc1` [Compound 171, (6,8-Dichloro-2-p-tolyl-imidazo[1,2-a]pyridin-3-ylmethyl)-(1H-imidazol-2-yl)-amine], the “% Inhibition at 1000 nM for CBZD” value is recorded as “++ (percentage of inhibition of central BZD site binding is greater than 80% in the presence of 1000 nM of the compound)”.

With `Cc1ccc(-c2nc3c(Cl)cc(Cl)cn3c2CNc2nc(C)cc(C)n2)cc1` [Compound 172, (6,8-Dichloro-2-p-tolyl-imidazo[1,2-a]pyridin-3-ylmethyl)-(4,6-dimethyl-pyrimidin-2-yl)-amine], the “% Inhibition at 1000 nM for CBZD” value was “++ (percentage of inhibition of central BZD site binding is greater than 80% in the presence of 1000 nM of the compound)”.

`Cc1ccc(-c2nc3ccc(C)cn3c2CON2C(=O)c3ccccc3C2=O)cc1` [Compound 173, 2-((6-methyl-2-p-tolylH-imidazo[1,2-a]pyridin-3-yl)methoxy)isoindoline-1,3-dione]: the “% Inhibition at 1000 nM for CBZD” value was “++ (percentage of inhibition of central BZD site binding is greater than 80% in the presence of 1000 nM of the compound)”.

Take `Cc1ccc(-c2nc3ccc(C)cn3c2COn2nnc3ccccc32)cc1` [Compound 174, 1-((6-methyl-2-p-tolylH-imidazo[1,2-a]pyridin-3-yl)methoxy)-1H-benzo[d][1,2,3]triazole]: the “% Inhibition at 1000 nM for CBZD” value is listed as “++ (percentage of inhibition of central BZD site binding is greater than 80% in the presence of 1000 nM of the compound)”.

Regarding `Cc1ccc(-c2nc3ccc(C)cn3c2COc2cccnc2)cc1` [Compound 175, 6-Methyl-3-(pyridin-3-yloxymethyl)-2-p-tolyl-imidazo[1,2-a]pyridine], the “% Inhibition at 1000 nM for CBZD” value was “++ (percentage of inhibition of central BZD site binding is greater than 80% in the presence of 1000 nM of the compound)”.

Turning to `Cc1ccc(-c2nc3ccc(C)cn3c2CSc2nncn2C)cc1` [Compound 176, 3-((4-methyl-4H-1,2,4-triazol-3-ylthio)methyl)-6-methyl-2-p-tolylH-imidazo[1,2-a]pyridine], the “% Inhibition at 1000 nM for CBZD” value is “++ (percentage of inhibition of central BZD site binding is greater than 80% in the presence of 1000 nM of the compound)”.

On to `Cc1ccc(-c2nc3ccc(C)cn3c2CSc2nc[nH]n2)cc1` [Compound 177, 6-Methyl-2-p-tolyl-3-(1H-[1,2,4]triazol-3-ylsulfanylmethyl)-imidazo[1,2-a]pyridine], for which the “% Inhibition at 1000 nM for CBZD” value is given as “+ (percentage of inhibition of central BZD site binding is greater than 50% but less than 80% in the presence of 1000 nM of the compound)”.

With `Cc1ccc(-c2nc3ccc(C)cn3c2CSc2cccs2)cc1` [Compound 178, 6-Methyl-3-(thiophen-2-ylsulfanylmethyl)-2-p-tolyl-imidazo[1,2-a]pyridine], the “% Inhibition at 1000 nM for CBZD” value was “+ (percentage of inhibition of central BZD site binding is greater than 50% but less than 80% in the presence of 1000 nM of the compound)”.

As to `Cc1ccc(-c2nc3ccc(C)cn3c2CSc2nncs2)cc1` [Compound 180, 6-Methyl-3-([1,3,4]thiadiazol-2-ylsulfanylmethyl)-2-p-tolyl-imidazo[1,2-a]pyridine], the “% Inhibition at 1000 nM for CBZD” value is on record as “++ (percentage of inhibition of central BZD site binding is greater than 80% in the presence of 1000 nM of the compound)”.
